Source: ChEMBL document CHEMBL5034001 (J Med Chem, 2021)
Active and inactive are the calls of the source. The rule behind the calls is not given here.

Key:
[1] = system: Receptor-type tyrosine-protein kinase FLT3 (Homo sapiens), P36888 [UNDEFINED MUTATION]; assay: Binding affinity to human partial length FLT3 ITD mutant expressed in bacterial expression system assessed as residual binding level at 100 nM by Kinomescan method relative to control
[2] = molecular target: Signal transducer and activator of transcription 3 (Homo sapiens) (UniProt P40763); assay: Inhibition of STAT3 downstream signalling in human NCI-H2228 cells assessed as reduction in pSTAT3 level at 1 to 1000 nM by Western blot analysis; assay type: cell-based; conditions: dose 1-1000 nM
[3] = molecular target: Protein-tyrosine kinase 2-beta (Homo sapiens) (UniProt Q14289); assay: Binding affinity to wild-type human full length PYK2 (M1 to E967 residues) expressed in bacterial expression system assessed as residual binding level at 100 nM by Kinomescan method relative to control
NCI-H2228 = assay: Down regulation of FAK in human NCI-H2228 cells at 1 to 1000 nM after 16 hrs by Western blot analysis; assay type: functional, cell-based; conditions: dose 1-1000 nM
MDA-MB-231 [4] = assay: Induction of apoptosis in human MDA-MB-231 cells at 100 nM after 72 hrs; assay type: functional, cell-based
[5] = molecular target: Serine/threonine-protein kinase ULK1 (Homo sapiens) (UniProt O75385); assay: Binding affinity to wild-type human partial length ULK1 (M1 to T309 residues) expressed in mammalian expression system assessed as residual binding level at 100 nM by Kinomescan method relative to control
[6] = AUC in […] at 10 mg/kg, po or 2 mg/kg, iv measured upto 24 hrs; assay type: ADME, organism-based; design: dose 10 mg/kg, time <=24; conditions: in vivo
[7] = molecular target: Cyclin-G-associated kinase (Homo sapiens) (UniProt O14976); assay: Binding affinity to wild-type human partial length GAK (G13 to Y338 residues) expressed in bacterial expression system assessed as residual binding level at 100 nM by Kinomescan method relative to control
Calu-1 [8] = assay: Induction of G1 cell cycle arrest in human Calu-1 cells at 100 nM after 24 to 48 hrs; assay type: functional, cell-based; conditions: time 24-48 hrs
[9] = molecular target: Focal adhesion kinase 1 (Homo sapiens) (UniProt Q05397); assay: Induction of FAK degradation in human A549 cells at 1 nM after 16 hrs by Western blot analysis; assay type: cell-based
[10] = molecular target: Focal adhesion kinase 1 (Homo sapiens) (UniProt Q05397); assay: Binding affinity to wild-type human partial length FAK (D402 to R696 residues) expressed in bacterial expression system assessed as residual binding level at 100 nM by Kinomescan method relative to control
[11] = Oral bioavailability in […] at 10 mg/kg measured upto 24 hrs; assay type: ADME, organism-based; conditions: in vivo
[12] = molecular target: Tyrosine-protein kinase receptor UFO (Homo sapiens) (UniProt P30530); assay: Binding affinity to wild-type human partial length AXL (R497 to Y821 residues) expressed in bacterial expression system assessed as residual binding level at 100 nM by Kinomescan method relative to control
[13] = molecular target: Tyrosine-protein kinase JAK3 (Homo sapiens) (UniProt P52333); assay: Binding affinity to wild-type human partial length JAK3 JH1 catalytic domain (I781 to S1124 residues) expressed in mammalian expression system assessed as residual binding level at 100 nM by Kinomescan method relative to control
[14] = molecular target: Serine/threonine-protein kinase SBK1 (Homo sapiens) (UniProt Q52WX2); assay: Binding affinity to wild-type human partial length SBK1 (P23 to P348 residues) expressed in mammalian expression system assessed as residual binding level at 100 nM by Kinomescan method relative to control
Calu-1 [15] = assay: Inhibition of cell migration in human Calu-1 cells at 100 nM after 12 to 24 hrs by wound healing assay; assay type: functional, cell-based; conditions: time lower […], time upper 24.0 hrs
[16] = molecular target: Serine/threonine-protein kinase 33 (Homo sapiens) (UniProt Q9BYT3); assay: Binding affinity to wild-type human full length STK33 (M1 to L514 residues) expressed in bacterial expression system assessed as residual binding level at 100 nM by Kinomescan method relative to control
[17] = molecular target: Focal adhesion kinase 1 (Homo sapiens) (UniProt Q05397); assay: Induction of FAK degradation in human MDA-MB-231 cells at 10 nM after 1 to 2 hrs by Western blot analysis; assay type: cell-based; conditions: time 1-2 hrs
A549 = assay: Down regulation of RSK1 in human A549 cells at 1 to 1000 nM after 16 hrs by Western blot analysis; assay type: functional, cell-based; conditions: dose 1-1000 nM
[18] = Metabolic stability in Sprague-Dawley rat liver microsomes preincubated for 10 mins followed by NADPH regenerating system addition and measured after 10 mins by LC-MS/MS analysis; assay type: ADME, Microsome; conditions: time 20 min, read-out: Stability
MDA-MB-231 [19] = assay: Induction of G1 cell cycle arrest in human MDA-MB-231 cells at 100 nM after 24 to 48 hrs; assay type: functional, cell-based; conditions: time 24-48 hrs
[20] = molecular target: ALK tyrosine kinase receptor (Homo sapiens, UniProt Q9UM73); assay: Induction of ALK degradation in human SR cells at 10 uM after 16 hrs by Western blot analysis; assay type: cell-based
[21] = system: ALK tyrosine kinase receptor (Homo sapiens), Q9UM73 [G1202R]; assay: Induction of […] G1202R mutant degradation in human […] at 100 nM by Western blot analysis; assay type: cell-based
Sequence of ALK tyrosine kinase receptor (Homo sapiens), Q9UM73 [G1202R] (Q9UM73 whole entry G1202R): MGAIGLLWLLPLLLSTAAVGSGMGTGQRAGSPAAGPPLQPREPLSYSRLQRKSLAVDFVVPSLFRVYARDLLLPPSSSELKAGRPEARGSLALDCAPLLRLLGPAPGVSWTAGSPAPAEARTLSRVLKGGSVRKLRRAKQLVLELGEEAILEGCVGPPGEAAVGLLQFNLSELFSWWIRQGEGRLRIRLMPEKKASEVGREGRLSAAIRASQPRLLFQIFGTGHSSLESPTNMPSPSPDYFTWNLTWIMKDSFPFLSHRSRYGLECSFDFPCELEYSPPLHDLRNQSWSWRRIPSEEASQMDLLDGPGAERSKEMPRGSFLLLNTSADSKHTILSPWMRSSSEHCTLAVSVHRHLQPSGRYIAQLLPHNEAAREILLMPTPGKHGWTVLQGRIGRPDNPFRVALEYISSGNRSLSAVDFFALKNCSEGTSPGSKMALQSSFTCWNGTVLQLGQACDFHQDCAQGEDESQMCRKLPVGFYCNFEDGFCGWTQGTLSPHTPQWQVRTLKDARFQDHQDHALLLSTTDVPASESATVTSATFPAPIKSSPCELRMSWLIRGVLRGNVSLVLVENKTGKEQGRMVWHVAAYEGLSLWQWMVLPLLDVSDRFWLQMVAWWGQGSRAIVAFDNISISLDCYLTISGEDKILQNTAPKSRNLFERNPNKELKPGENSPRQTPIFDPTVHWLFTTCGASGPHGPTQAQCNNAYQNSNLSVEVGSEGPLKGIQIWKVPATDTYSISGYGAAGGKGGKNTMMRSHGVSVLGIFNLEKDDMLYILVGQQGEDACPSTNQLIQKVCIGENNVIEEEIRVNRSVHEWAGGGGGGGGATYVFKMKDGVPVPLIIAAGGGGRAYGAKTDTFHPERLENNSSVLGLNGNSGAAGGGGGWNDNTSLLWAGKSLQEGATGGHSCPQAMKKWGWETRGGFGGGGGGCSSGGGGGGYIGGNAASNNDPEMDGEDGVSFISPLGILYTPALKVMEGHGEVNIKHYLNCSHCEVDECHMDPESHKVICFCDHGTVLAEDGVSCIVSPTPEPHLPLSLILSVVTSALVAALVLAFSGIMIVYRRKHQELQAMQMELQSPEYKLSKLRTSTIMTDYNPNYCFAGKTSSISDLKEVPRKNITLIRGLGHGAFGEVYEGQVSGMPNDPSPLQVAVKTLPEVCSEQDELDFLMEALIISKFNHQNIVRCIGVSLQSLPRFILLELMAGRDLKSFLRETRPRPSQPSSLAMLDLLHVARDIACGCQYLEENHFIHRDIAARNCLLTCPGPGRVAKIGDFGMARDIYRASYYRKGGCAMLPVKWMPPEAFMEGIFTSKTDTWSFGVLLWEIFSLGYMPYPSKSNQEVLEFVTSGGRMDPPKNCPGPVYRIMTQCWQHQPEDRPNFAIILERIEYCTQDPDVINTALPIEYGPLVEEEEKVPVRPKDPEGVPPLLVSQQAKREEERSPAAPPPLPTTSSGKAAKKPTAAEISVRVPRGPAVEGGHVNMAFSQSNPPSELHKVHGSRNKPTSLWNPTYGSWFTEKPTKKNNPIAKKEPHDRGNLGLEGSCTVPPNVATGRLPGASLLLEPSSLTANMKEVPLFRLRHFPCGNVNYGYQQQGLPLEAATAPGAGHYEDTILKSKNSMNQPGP

Sequence of Focal adhesion kinase 1 (Homo sapiens) (Q05397 2-1052 limits assumed): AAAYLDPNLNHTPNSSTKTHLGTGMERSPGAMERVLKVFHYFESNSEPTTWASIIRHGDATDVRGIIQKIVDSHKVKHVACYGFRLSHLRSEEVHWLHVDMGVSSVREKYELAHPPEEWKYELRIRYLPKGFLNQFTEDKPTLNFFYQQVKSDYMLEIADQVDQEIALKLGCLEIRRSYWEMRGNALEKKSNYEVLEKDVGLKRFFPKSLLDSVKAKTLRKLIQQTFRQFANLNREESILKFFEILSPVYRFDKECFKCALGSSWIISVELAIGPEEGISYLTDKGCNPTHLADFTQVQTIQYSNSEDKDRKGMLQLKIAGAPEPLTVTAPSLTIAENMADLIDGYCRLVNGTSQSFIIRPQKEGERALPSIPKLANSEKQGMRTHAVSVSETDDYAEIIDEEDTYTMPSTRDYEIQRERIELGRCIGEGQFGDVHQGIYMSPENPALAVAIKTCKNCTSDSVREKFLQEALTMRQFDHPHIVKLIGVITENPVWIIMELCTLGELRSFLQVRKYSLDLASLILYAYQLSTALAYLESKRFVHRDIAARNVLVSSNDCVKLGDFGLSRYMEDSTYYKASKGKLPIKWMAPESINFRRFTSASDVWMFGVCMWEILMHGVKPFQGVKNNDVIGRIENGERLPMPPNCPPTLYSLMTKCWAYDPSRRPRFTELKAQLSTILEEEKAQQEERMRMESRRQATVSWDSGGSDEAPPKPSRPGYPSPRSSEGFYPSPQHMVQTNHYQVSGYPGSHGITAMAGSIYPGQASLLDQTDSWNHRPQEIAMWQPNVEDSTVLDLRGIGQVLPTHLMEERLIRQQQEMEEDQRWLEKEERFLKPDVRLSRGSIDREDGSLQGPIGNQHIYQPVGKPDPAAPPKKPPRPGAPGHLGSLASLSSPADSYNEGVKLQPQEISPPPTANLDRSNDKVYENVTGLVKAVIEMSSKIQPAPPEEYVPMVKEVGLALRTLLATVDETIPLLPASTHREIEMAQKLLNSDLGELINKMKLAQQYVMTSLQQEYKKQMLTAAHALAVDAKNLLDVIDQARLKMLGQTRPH
Sequence of Serine/threonine-protein kinase ULK1 (Homo sapiens) (O75385 whole entry, the tested form may be a part): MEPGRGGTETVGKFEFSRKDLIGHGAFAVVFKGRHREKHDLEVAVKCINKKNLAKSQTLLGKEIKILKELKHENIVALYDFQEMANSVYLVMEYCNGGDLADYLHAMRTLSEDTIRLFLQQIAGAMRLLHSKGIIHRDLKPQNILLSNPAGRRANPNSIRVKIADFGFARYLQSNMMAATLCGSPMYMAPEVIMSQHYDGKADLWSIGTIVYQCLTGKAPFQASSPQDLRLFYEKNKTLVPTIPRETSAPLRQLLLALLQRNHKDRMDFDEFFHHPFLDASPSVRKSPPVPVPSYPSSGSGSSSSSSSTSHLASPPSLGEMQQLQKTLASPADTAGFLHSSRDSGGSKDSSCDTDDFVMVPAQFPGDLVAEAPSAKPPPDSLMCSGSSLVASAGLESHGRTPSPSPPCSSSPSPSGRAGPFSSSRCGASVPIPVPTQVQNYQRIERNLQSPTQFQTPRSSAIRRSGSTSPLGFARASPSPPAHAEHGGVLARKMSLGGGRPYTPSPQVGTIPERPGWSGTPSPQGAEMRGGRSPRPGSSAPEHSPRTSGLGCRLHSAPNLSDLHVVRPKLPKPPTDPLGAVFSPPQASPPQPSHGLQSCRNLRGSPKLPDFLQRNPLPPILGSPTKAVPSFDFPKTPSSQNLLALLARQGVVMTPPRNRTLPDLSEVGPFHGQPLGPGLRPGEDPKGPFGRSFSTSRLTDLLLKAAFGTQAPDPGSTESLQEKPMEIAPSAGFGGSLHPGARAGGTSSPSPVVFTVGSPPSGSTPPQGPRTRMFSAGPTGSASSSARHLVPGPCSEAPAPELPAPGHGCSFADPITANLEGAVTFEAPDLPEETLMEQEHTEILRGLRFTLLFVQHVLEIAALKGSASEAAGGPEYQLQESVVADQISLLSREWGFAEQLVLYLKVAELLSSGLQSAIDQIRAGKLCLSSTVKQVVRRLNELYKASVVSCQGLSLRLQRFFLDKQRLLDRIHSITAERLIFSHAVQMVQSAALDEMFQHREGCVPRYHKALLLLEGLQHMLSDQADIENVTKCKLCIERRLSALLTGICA
Sequence of Tyrosine-protein kinase JAK3 (Homo sapiens) (P52333 whole entry, the tested form may be a part): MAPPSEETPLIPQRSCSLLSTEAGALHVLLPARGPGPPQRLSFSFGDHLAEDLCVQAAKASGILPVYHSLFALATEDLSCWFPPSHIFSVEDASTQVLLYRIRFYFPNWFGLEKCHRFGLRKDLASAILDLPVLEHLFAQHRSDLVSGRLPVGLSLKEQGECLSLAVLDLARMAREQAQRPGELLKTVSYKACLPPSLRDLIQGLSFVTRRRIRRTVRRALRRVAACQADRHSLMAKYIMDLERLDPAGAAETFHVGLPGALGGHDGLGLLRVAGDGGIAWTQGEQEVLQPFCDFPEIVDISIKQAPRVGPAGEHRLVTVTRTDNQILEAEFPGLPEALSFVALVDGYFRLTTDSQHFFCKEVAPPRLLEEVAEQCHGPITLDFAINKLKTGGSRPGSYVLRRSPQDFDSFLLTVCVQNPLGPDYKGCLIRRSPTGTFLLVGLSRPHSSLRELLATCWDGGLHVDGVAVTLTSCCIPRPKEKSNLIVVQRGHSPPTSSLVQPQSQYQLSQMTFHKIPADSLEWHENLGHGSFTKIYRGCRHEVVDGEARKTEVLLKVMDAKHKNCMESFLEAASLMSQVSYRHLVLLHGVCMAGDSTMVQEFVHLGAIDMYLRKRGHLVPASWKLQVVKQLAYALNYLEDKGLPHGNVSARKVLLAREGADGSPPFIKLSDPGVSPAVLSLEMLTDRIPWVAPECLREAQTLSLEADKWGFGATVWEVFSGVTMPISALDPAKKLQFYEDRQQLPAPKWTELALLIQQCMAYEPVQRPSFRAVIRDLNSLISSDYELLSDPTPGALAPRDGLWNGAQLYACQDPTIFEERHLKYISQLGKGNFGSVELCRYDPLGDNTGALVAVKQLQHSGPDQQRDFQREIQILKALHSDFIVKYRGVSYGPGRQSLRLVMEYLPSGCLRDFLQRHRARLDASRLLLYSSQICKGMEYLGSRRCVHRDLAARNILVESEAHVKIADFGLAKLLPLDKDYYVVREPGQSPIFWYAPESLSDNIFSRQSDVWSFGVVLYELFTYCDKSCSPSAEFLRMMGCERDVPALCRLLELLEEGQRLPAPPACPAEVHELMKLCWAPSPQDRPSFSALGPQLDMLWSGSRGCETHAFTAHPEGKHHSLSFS

## COc1cc(N2CCC(N3CCN(C(=O)CNc4cccc5c4C(=O)N(C4CCC(=O)NC4=O)C5=O)CC3)CC2)ccc1Nc1ncc(Cl)c(Nc2ccccc2P(C)(C)=O)n1 (stereo not drawn)
[1]
  Activity: 3%
[2]
  inhibition: inactive
[3]
  Activity: 3.5%
NCI-H2228
  Activity: Active
MDA-MB-231 [4]
  Activity: inactive
[5]
  Activity: 1.6%
[6]
  AUC at 24 h: 1560 ng·h/mL
[7]
  Activity: 1.4%
Calu-1 [8]
  Activity: Active
[9]
  Activity: Active
[10]
  Activity: 2.5%
[11]
  bioavailability: 18.4%
[12]
  Activity: 9.5%
[13]
  Activity: 1%
[14]
  Activity: 3.9%
Calu-1 [15]
  inhibition: Active
[16]
  Activity: 2.3%
[17]
  Activity: Active
A549
  Activity: Active
[18]
  microsomal CLint: < 9.6 µL/min/mg
MDA-MB-231 [19]
  Activity: Active
[20]
  Activity: Active
[21]
  Activity: Active
